According to patent publication US20090233942A1, “Genetic markers associated with response to antidepressants” (priority 2008, published 2009):

Tested on: adult patients diagnosed with MDD
Assay: Eight-week randomized, double-blind, placebo-controlled study: association of sequenced gene markers (Tables 1-17) with vilazodone response as change of MADRS
Format: in vivo, human
Settings: mean MADRS decrease
Source text: There was a wide range of inter-individual variability in response to vilazodone as well as to placebo and the active comparators. This variability may be partially due to genetic differences among the individuals treated. This example illustrates a randomized, double-blind, placebo-controlled, multicenter, eight-week study designed to discover genetic markers of response to vilazodone in adult patients diagnosed with MDD by the DSM-IV-TR criteria. Patients must have met all of the following inclusion criteria to be considered for enrollment in the study: (1) 18-65 years of age; (2) diagnosis of MDD, single episode or recurrent, according to DSM-IV-TR (296.2/296.3) with a current Major Depressive Episode of less than one year's duration with a minimum duration of at least 4 weeks; (3) HAM-D score≧22 on the first 17 items of the 21-item HAM-D at screening and baseline visits; (4) HAM-D item 1 (depressed mood) score≧2 at the screening visit and the baseline visit; (5) provision of written informed consent to participate; and (6) ability to speak, read and understand English and to respond to questions and follow simple instructions.
Following randomization into vilazodone and placebo groups, patients began the forced titration schedule. Patients received 10 mg qd until Visit 3 (approximately Day 7). At Visit 3 patients received 20 mg qd until Visit 4 (approximately Day 14). At Visit 4 patients received the target dose of 40 mg qd (approximately Day 15). A total of 152 patients completed the vilazodone arm, while 154 patients completed the placebo arm.
This example illustrates genotyping of the study group for the ACE, ATP5C3, BCL2L1, CYP2C9, DRD3, FOS, DTNBP1, GABRG3, GRIA4, LAMA4, MAPK1, NPY1R, OPRD1, OPRM1, PER3, PLCB1, and PSMD1 polymorphic sites selected by the inventors herein for analysis. Genomic DNA was isolated from blood obtained from each individual and amplified target regions containing the polymorphic sites in Tables A-21 to A-37 (Appendix A) were sequenced to determine the genotypes at these polymorphic sites. Tailed (Universal M13 Forward and Reverse) PCR primers were designed using the sequence of SEQ ID NO:1 for ACE, SEQ ID NO:2 for ATP5C3, SEQ ID NO:3 for BCL2L1, SEQ ID NO:4 for CYP2C9, SEQ ID NO:5 for DRD3, SEQ ID NO:6 for FOS, SEQ ID NO:7 for DTNBP1, SEQ ID NO:8 for GABRG3, SEQ ID NO:9 for GRIA4, SEQ ID NO:10 for LAMA4, SEQ ID NO:11 for MAPK1, SEQ ID NO:12 for NPY1R, SEQ ID NO:13 for OPRD1, SEQ ID NO:14 for OPRM1, SEQ ID NO:15 for PER3, SEQ ID NO:16 for PLCB1, and SEQ ID NO:17 for PSMD1. Amplified PCR products were sequenced using Applied Biosystems' Big Dye® Terminator v 3.1 cycle sequencing kit according to manufacturer's instructions. The reaction products were then electrophoresed using an Applied Biosystems 3700 or 3730xl DNA analyzer. Polymorphisms were identified using the Polyphred program, and confirmed by visual inspection.
Haplotypes were estimated from the unphased genotypes using a computer-implemented algorithm for assigning haplotypes to unrelated individuals in a population sample, essentially as described in WO 01/80156. In this method, haplotypes are assigned directly from individuals who are homozygous at all sites or heterozygous at no more than one of the variable sites. This list of haplotypes is then used to deconvolute the unphased genotypes in the remaining (multiply heterozygous) individuals.
This example illustrates analysis of the markers in Tables A-1 to A-17 (Appendix A) for association with vilazodone response. A proprietary algorithm was used as a tool for finding associations between markers and outcomes. The clinical outcomes were improvement in disease over eight weeks of treatment with vilazodone as measured by the MADRS scale. A linear model was first fitted on the covariates, which were treatment center, race, ethnicity, and baseline values. […]

[1] = PLCB1 marker 1, carriers vs non-carriers
[2] = PLCB1 marker 2, carriers vs non-carriers
[3] = PLCB1 marker 3, carriers vs non-carriers
[4] = PLCB1 marker 4, carriers vs non-carriers
[5] = PLCB1 marker 5, carriers vs non-carriers
[6] = PLCB1 marker 6, carriers vs non-carriers
[7] = PLCB1 marker 7, carriers vs non-carriers
[8] = PLCB1 marker 8, carriers vs non-carriers
[9] = PLCB1 marker 9, carriers vs non-carriers
[10] = PLCB1 marker 10, carriers vs non-carriers
[11] = PLCB1 marker 11, carriers vs non-carriers
[12] = PLCB1 marker 12, carriers vs non-carriers
[13] = PLCB1 marker 13, carriers vs non-carriers
[14] = PLCB1 marker 17, carriers vs non-carriers
[15] = PLCB1 marker 18, carriers vs non-carriers
[16] = PLCB1 marker 19, carriers vs non-carriers
[17] = PLCB1 marker 20, carriers vs non-carriers
[18] = PLCB1 marker 21, carriers vs non-carriers
[19] = PLCB1 marker 22, carriers vs non-carriers
[20] = PLCB1 marker 23, carriers vs non-carriers
[21] = PLCB1 marker 24, carriers vs non-carriers
[22] = PLCB1 marker 25, carriers vs non-carriers
[23] = PLCB1 marker 26, carriers vs non-carriers
[24] = PLCB1 marker 27, carriers vs non-carriers
[25] = PLCB1 marker 28, carriers vs non-carriers
[26] = PLCB1 marker 29, carriers vs non-carriers
[27] = PLCB1 marker 30, carriers vs non-carriers
[28] = PLCB1 marker 31, carriers vs non-carriers
[29] = PLCB1 marker 32, carriers vs non-carriers
[30] = PLCB1 marker 33, carriers vs non-carriers
[31] = PLCB1 marker 34, carriers vs non-carriers
[32] = PLCB1 marker 35, carriers vs non-carriers
[33] = PLCB1 marker 36, carriers vs non-carriers
[34] = PLCB1 marker 37, carriers vs non-carriers
[35] = PLCB1 marker 38, carriers vs non-carriers
[36] = PLCB1 marker 39, carriers vs non-carriers
[37] = PLCB1 marker 40, carriers vs non-carriers
[38] = PLCB1 marker 41, carriers vs non-carriers
[39] = PLCB1 marker 42, carriers vs non-carriers
[40] = PLCB1 marker 43, carriers vs non-carriers
[41] = PLCB1 marker 44, carriers vs non-carriers
[42] = PLCB1 marker 45, carriers vs non-carriers
[43] = PLCB1 marker 46, carriers vs non-carriers
[44] = PLCB1 marker 47, carriers vs non-carriers
[45] = PLCB1 marker 48, carriers vs non-carriers
[46] = PLCB1 marker 49, carriers vs non-carriers
[47] = PLCB1 marker 50, carriers vs non-carriers
[48] = PLCB1 marker 51, carriers vs non-carriers
[49] = PLCB1 marker 52, carriers vs non-carriers
[50] = PLCB1 marker 53, carriers vs non-carriers

Cl.N#Cc1ccc2[nH]cc(CCCCN3CCN(c4ccc5oc(C(N)=O)cc5c4)CC3)c2c1 [Vilazodone, 5-{4-[4-(5-Cyano-3-indolyl)-butyl]-1-piperazinyl}-benzofuran-2-carboxamide hydrochloride]
−6.6: Response difference (Cauc. only) [4] | Response difference (Cauc. only) [16] | Response difference (Cauc. only) [37] | Response difference (Cauc. only) [38] | Response difference (Cauc. only) [39] | Response difference (Cauc. only) [40] | Response difference (Cauc. only) [41] | Response difference (Cauc. only) [42] | Response difference (Cauc. only) [43] | Response difference (Cauc. only) [44] | Response difference (Cauc. only) [45] | Response difference (Cauc. only) [46] | Response difference (Cauc. only) [47] | Response difference (Cauc. only) [48] | Response difference (Cauc. only) [49] | Response difference (Cauc. only) [50]
−4.3: Response difference (all ethnic.) [5] | Response difference (all ethnic.) [6] | Response difference (all ethnic.) [8]
−5.4: Response difference (Cauc. only) [7]
−4.8: Response difference (all ethnic.) [1] | Response difference (all ethnic.) [2] | Response difference (all ethnic.) [20] | Response difference (all ethnic.) [21]
−4.9: Response difference (all ethnic.) [13]
−3.9: Response difference (all ethnic.) [7]
−5.2: Response difference (all ethnic.) [11]
−6.1: Response difference (Cauc. only) [1] | Response difference (Cauc. only) [20]
−6.5: Response difference (Cauc. only) [3] | Response difference (Cauc. only) [22] | Response difference (Cauc. only) [23] | Response difference (Cauc. only) [24] | Response difference (Cauc. only) [25] | Response difference (Cauc. only) [26] | Response difference (Cauc. only) [27] | Response difference (Cauc. only) [28] | Response difference (Cauc. only) [29] | Response difference (Cauc. only) [30] | Response difference (Cauc. only) [31] | Response difference (Cauc. only) [32] | Response difference (Cauc. only) [33] | Response difference (Cauc. only) [34] | Response difference (Cauc. only) [35] | Response difference (Cauc. only) [36]
−7: Response difference (Cauc. only) [12]
−6.4: Response difference (Cauc. only) [9] | Response difference (Cauc. only) [11]
−4.6: Response difference (all ethnic.) [10] | Response difference (all ethnic.) [16]
−5.1: Response difference (all ethnic.) [3] | Response difference (all ethnic.) [4] | Response difference (all ethnic.) [9] | Response difference (all ethnic.) [22] | Response difference (all ethnic.) [23] | Response difference (all ethnic.) [24] | Response difference (all ethnic.) [25] | Response difference (all ethnic.) [26] | Response difference (all ethnic.) [27] | Response difference (all ethnic.) [28] | Response difference (all ethnic.) [29] | Response difference (all ethnic.) [30] | Response difference (all ethnic.) [31] | Response difference (all ethnic.) [32] | Response difference (all ethnic.) [33] | Response difference (all ethnic.) [34] | Response difference (all ethnic.) [35] | Response difference (all ethnic.) [36] | Response difference (all ethnic.) [37] | Response difference (all ethnic.) [38] | Response difference (all ethnic.) [39] | Response difference (all ethnic.) [40] | Response difference (all ethnic.) [41] | Response difference (all ethnic.) [42] | Response difference (all ethnic.) [43] | Response difference (all ethnic.) [44] | Response difference (all ethnic.) [45] | Response difference (all ethnic.) [46] | Response difference (all ethnic.) [47] | Response difference (all ethnic.) [48] | Response difference (all ethnic.) [49] | Response difference (all ethnic.) [50]
−6.7: Response difference (Cauc. only) [17] | Response difference (Cauc. only) [19]
−6.2: Response difference (Cauc. only) [2] | Response difference (Cauc. only) [13] | Response difference (Cauc. only) [21]
−5.6: Response difference (all ethnic.) [12]
−4.2: Response difference (all ethnic.) [18]
−6: Response difference (Cauc. only) [6] | Response difference (Cauc. only) [8] | Response difference (Cauc. only) [14] | Response difference (Cauc. only) [15]
−5.9: Response difference (Cauc. only) [5] | Response difference (Cauc. only) [18]
−4.7: Response difference (all ethnic.) [14] | Response difference (all ethnic.) [15] | Response difference (all ethnic.) [17] | Response difference (all ethnic.) [19]
−5.8: Response difference (Cauc. only) [10]
